Laboratory results as given in US20260262643A1, “HERBICIDAL BENZOXAZINES” (FMC CORPORATION, priority 2022, published 2026).

Columns and labels:
[1] = test system: green foxtail; experiment: Test C postemergence; format: in vivo, Setaria viridis; settings: 10 days, 0 to 100 scale (0 no effect, 100 complete control)
Outline: (§1)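 Pre: seeds in loam/sand, directed soil spray. Post: 1–2 leaf plants, 2–10 cm. Cmpd in non-phytotoxic solvent + surfactant. Greenhouse 10 d; visual rating vs untreated, 0 = none, 100 = complete control.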

[2] = test system: rice; experiment: Test D flooded paddy test; format: in vivo, Oryza sativa; settings: 250 g ai/ha, applied to paddy water, visual rating after 13 to 14 days, scale 0 to 100 (0 no effect, 100 complete control)
Outline: (§2)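 Post-flood water application at the 2-leaf stage; 3 cm flood depth kept constant; visual control rating 0–100 after 13–14 days greenhouse growth.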

[3] = test system: oat, wild; experiment: Test C postemergence; format: in vivo, Avena fatua; settings: 10 days, 0 to 100 scale (0 no effect, 100 complete control)
Outline: as §1

[4] = test system: ragweed; experiment: Test C postemergence; format: in vivo, Ambrosia artemisiifolia; settings: 10 days, 0 to 100 scale (0 no effect, 100 complete control)
Outline: as §1

[5] = test system: blackgrass; experiment: Test C preemergence; format: in vivo, Alopecurus myosuroides; settings: preemergence, 0 to 100 scale (0 no effect, 100 complete control)
Outline: as §1

[6] = test system: ragweed; experiment: Test C preemergence; format: in vivo, Ambrosia artemisiifolia; settings: preemergence, 0 to 100 scale (0 no effect, 100 complete control)
Outline: as §1

[7] = test system: barnyardgrass; experiment: Test C preemergence; format: in vivo, Echinochloa crusgalli; settings: preemergence, 0 to 100 scale (0 no effect, 100 complete control)
Outline: as §1

[8] = test system: barnyardgrass; experiment: Test D flooded paddy test; format: in vivo, Echinochloa crus-galli; settings: 250 g ai/ha, applied to paddy water, visual rating after 13 to 14 days, scale 0 to 100 (0 no effect, 100 complete control)
Outline: as §2

[9] = test system: ryegrass, Italian; experiment: Test C postemergence; format: in vivo, Lolium multiflorum; settings: 10 days, 0 to 100 scale (0 no effect, 100 complete control)
Outline: as §1

[10] = test system: ryegrass, Italian; experiment: Test C preemergence; format: in vivo, Lolium multiflorum; settings: preemergence, 0 to 100 scale (0 no effect, 100 complete control)
Outline: as §1

[11] = test system: wheat; experiment: Test C preemergence; format: in vivo, Triticum aestivum; settings: preemergence, 0 to 100 scale (0 no effect, 100 complete control)
Outline: as §1

[12] = test system: soybean; experiment: Test C postemergence; format: in vivo, Glycine max; settings: 10 days, 0 to 100 scale (0 no effect, 100 complete control)
Outline: as §1

[13] = test system: barnyardgrass; experiment: Test C postemergence; format: in vivo, Echinochloa crusgalli; settings: 10 days, 0 to 100 scale (0 no effect, 100 complete control)
Outline: as §1

[14] = test system: horseweed; experiment: Test C postemergence; format: in vivo, Erigeron canadensis; settings: 10 days, 0 to 100 scale (0 no effect, 100 complete control)
Outline: as §1

[15] = test system: green foxtail; experiment: Test C preemergence; format: in vivo, Setaria viridis; settings: preemergence, 0 to 100 scale (0 no effect, 100 complete control)
Outline: as §1

[16] = test system: corn; experiment: Test C preemergence; format: in vivo, Zea mays; settings: preemergence, 0 to 100 scale (0 no effect, 100 complete control)
Outline: as §1

[17] = test system: pigweed, palmer; experiment: Test C preemergence; format: in vivo, Amaranthus palmeri; settings: preemergence, 0 to 100 scale (0 no effect, 100 complete control)
Outline: as §1

[18] = test system: oat, wild; experiment: Test C preemergence; format: in vivo, Avena fatua; settings: preemergence, 0 to 100 scale (0 no effect, 100 complete control)
Outline: as §1

[19] = test system: corn; experiment: Test C postemergence; format: in vivo, Zea mays; settings: 10 days, 0 to 100 scale (0 no effect, 100 complete control)
Outline: as §1

[20] = test system: sedge, umbrella; experiment: Test D flooded paddy test; format: in vivo, Cyperus difformis; settings: 250 g ai/ha, applied to paddy water, visual rating after 13 to 14 days, scale 0 to 100 (0 no effect, 100 complete control)
Outline: as §2

[21] = test system: soybean; experiment: Test C preemergence; format: in vivo, Glycine max; settings: preemergence, 0 to 100 scale (0 no effect, 100 complete control)
Outline: as §1

[22] = test system: galium; experiment: Test C postemergence; format: in vivo, Galium aparine; settings: 10 days, 0 to 100 scale (0 no effect, 100 complete control)
Outline: as §1

[23] = test system: pigweed, palmer; experiment: Test C postemergence; format: in vivo, Amaranthus palmeri; settings: 10 days, 0 to 100 scale (0 no effect, 100 complete control)
Outline: as §1

[24] = test system: kochia; experiment: Test C postemergence; format: in vivo, Bassia scoparia; settings: 10 days, 0 to 100 scale (0 no effect, 100 complete control)
Outline: as §1

[25] = test system: blackgrass; experiment: Test C postemergence; format: in vivo, Alopecurus myosuroides; settings: 10 days, 0 to 100 scale (0 no effect, 100 complete control)
Outline: as §1

[26] = test system: wheat; experiment: Test C postemergence; format: in vivo, Triticum aestivum; settings: 10 days, 0 to 100 scale (0 no effect, 100 complete control)
Outline: as §1

[27] = test system: kochia; experiment: Test C preemergence; format: in vivo, Bassia scoparia; settings: preemergence, 0 to 100 scale (0 no effect, 100 complete control)
Outline: as §1

[28] = test system: ducksalad; experiment: Test D flooded paddy test; format: in vivo, Heteranthera limosa; settings: 250 g ai/ha, applied to paddy water, visual rating after 13 to 14 days, scale 0 to 100 (0 no effect, 100 complete control)
Outline: as §2

SMILES: COc1ncn(-c2cccc(C(=O)N3C[C@H](C)Oc4c(C)cccc43)c2)n1 [Compound 307]
- Plant response rating, Foxtail, Green ([1]; 500 g ai/ha, postemergence): 90
- Plant response rating, Foxtail, Green ([1]; Postemergence, 125 g ai/ha): 60
- Plant response rating, Rice (Flood) [2]: 0
- Plant response rating, Oat, Wild ([3]; 500 g ai/ha, postemergence): 80
- Plant response rating, Oat, Wild ([3]; Postemergence, 125 g ai/ha): 20
- Plant response rating, Ragweed ([4]; 500 g ai/ha, postemergence): 50
- Plant response rating, Ragweed ([4]; Postemergence, 125 g ai/ha): 0
- Blackgrass plant response rating ([5]; 500 g ai/ha): 80
- Blackgrass plant response rating ([5]; Test C, 125 g ai/ha): 40
- Ragweed plant response rating ([6]; 500 g ai/ha): 50
- Ragweed plant response rating ([6]; Test C, 125 g ai/ha): 0
- Barnyardgrass plant response rating ([7]; 500 g ai/ha): 90
- Barnyardgrass plant response rating ([7]; Test C, 125 g ai/ha): 40
- Plant response rating, Barnyardgrass (Flood) [8]: 0
- Plant response rating, Ryegrass, Italian ([9]; 500 g ai/ha, postemergence): 70
- Plant response rating, Ryegrass, Italian ([9]; Postemergence, 125 g ai/ha): 60
- Ryegrass, Italian plant response rating ([10]; 500 g ai/ha): 80
- Ryegrass, Italian plant response rating ([10]; Test C, 125 g ai/ha): 80
- Wheat plant response rating ([11]; 500 g ai/ha): 90
- Wheat plant response rating ([11]; Test C, 125 g ai/ha): 10
- Plant response rating, Soybean ([12]; 500 g ai/ha, postemergence): 100
- Plant response rating, Soybean ([12]; Postemergence, 125 g ai/ha): 100
- Plant response rating, Barnyardgrass ([13]; 500 g ai/ha, postemergence): 80
- Plant response rating, Barnyardgrass ([13]; Postemergence, 125 g ai/ha): 50
- Plant response rating, Horseweed ([14]; 500 g ai/ha, postemergence): 30
- Plant response rating, Horseweed ([14]; Postemergence, 125 g ai/ha): 20
- Foxtail, Green plant response rating ([15]; 500 g ai/ha): 100
- Foxtail, Green plant response rating ([15]; Test C, 125 g ai/ha): 100
- Corn plant response rating ([16]; 500 g ai/ha): 10
- Corn plant response rating ([16]; Test C, 125 g ai/ha): 0
- Pigweed, Palmer plant response rating ([17]; 500 g ai/ha): 100
- Pigweed, Palmer plant response rating ([17]; Test C, 125 g ai/ha): 60
- Oat, Wild plant response rating ([18]; 500 g ai/ha): 90
- Oat, Wild plant response rating ([18]; Test C, 125 g ai/ha): 50
- Plant response rating, Corn ([19]; 500 g ai/ha, postemergence): 50
- Plant response rating, Corn ([19]; Postemergence, 125 g ai/ha): 10
- Plant response rating, Sedge, Umbrella (Flood) [20]: 0
- Soybean plant response rating ([21]; 500 g ai/ha): 100
- Soybean plant response rating ([21]; Test C, 125 g ai/ha): 20
- Plant response rating, Galium ([22]; 500 g ai/ha, postemergence): 90
- Plant response rating, Galium ([22]; Postemergence, 125 g ai/ha): 80
- Plant response rating, Pigweed, Palmer ([23]; 500 g ai/ha, postemergence): 50
- Plant response rating, Pigweed, Palmer ([23]; Postemergence, 125 g ai/ha): 20
- Plant response rating, Kochia ([24]; 500 g ai/ha, postemergence): 70
- Plant response rating, Kochia ([24]; Postemergence, 125 g ai/ha): 40
- Plant response rating, Blackgrass ([25]; 500 g ai/ha, postemergence): 90
- Plant response rating, Blackgrass ([25]; Postemergence, 125 g ai/ha): 70
- Plant response rating, Wheat ([26]; 500 g ai/ha, postemergence): 80
- Plant response rating, Wheat ([26]; Postemergence, 125 g ai/ha): 10
- Kochia plant response rating ([27]; 500 g ai/ha): 80
- Kochia plant response rating ([27]; Test C, 125 g ai/ha): 40
- Plant response rating, Ducksalad (Flood) [28]: 0
